Data reported in ChEMBL document CHEMBL6134871, “PCSK9 Targeted Autophagosome-Tethering Compounds: Design, Synthesis, and Antiatherosclerosis Evaluation” (J Med Chem, 2025).
Blank lines part the entries; values can stand above or below the compound they belong to. Calls of active or inactive are those of the source. No cut-off for these calls is given here.

What was measured:
[1] = Tmax in C57 mouse at 5 mg/kg, po; assay type: ADME, organism-based; details: in vivo
[2] = Tmax in C57 mouse at 5 mg/kg, ip; assay type: ADME, organism-based; details: in vivo
[3] = Cmax in C57 mouse at 5 mg/kg, po; assay type: ADME, organism-based; details: in vivo
[4] = Cmax in C57 mouse at 5 mg/kg, ip; assay type: ADME, organism-based; details: in vivo
[5] = AUC (0 to t) in C57 mouse at 5 mg/kg, iv; assay type: ADME, organism-based; details: in vivo
[6] = AUC (0 to t) in C57 mouse at 5 mg/kg, po; assay type: ADME, organism-based; details: in vivo
[7] = AUC (0 to t) in C57 mouse at 5 mg/kg, ip; assay type: ADME, organism-based; details: in vivo
[8] = AUC (0 to infinity) in C57 mouse at 5 mg/kg, iv; assay type: ADME, organism-based; details: in vivo
[9] = AUC (0 to infinity) in C57 mouse at 5 mg/kg, po; assay type: ADME, organism-based; details: in vivo
[10] = AUC (0 to infinity) in C57 mouse at 5 mg/kg, ip; assay type: ADME, organism-based; details: in vivo
[11] = Oral bioavailability in C57 mouse at 5 mg/kg; assay type: ADME, organism-based; details: in vivo
[12] = Bioavailability in C57 mouse at 5 mg/kg, ip; assay type: ADME, organism-based; details: in vivo
Huh-7 [13] = assay: Induction of autophagy in human Huh-7 cells assessed as colocalization of lysosome with LC3B protein at 100 nM incubated for 3 hrs by DAPI staining based fluorescence based analysis; assay type: functional, cell-based
Huh-7 [14] = assay: Induction of autophagy in human Huh-7 cells assessed as colocalization of lysosome with LAMP1 protein at 100 nM incubated for 3 hrs by DAPI staining based fluorescence based analysis; assay type: functional, cell-based
Huh-7 [15] = assay: Induction of LDL uptake in human Huh-7 cells at 100 nM incubated for 24 hrs by DiI-LDL DMEM staining based fluorescence microplate reader assay; assay type: functional, cell-based
Huh-7 [16] = assay: Induction of autophagy in human Huh-7 cells assessed as reduction in PCSK9 level at 37 uM incubated for 24 hrs in presence of chloroquine by Western blot analysis; assay type: functional, cell-based
Huh-7 [17] = assay: Induction of autophagy in human Huh-7 cells assessed as reduction in PCSK9 level at 100 nM incubated for 24 hrs in presence of carfilzomib by Western blot analysis; assay type: functional, cell-based
Huh-7 [18] = assay: Induction of autophagy in human Huh-7 cells assessed as reduction in PCSK9 level at 100 nM incubated for 24 hrs in presence of EBSS by Western blot analysis; assay type: functional, cell-based
HUVEC [19] = assay: Anti-atherosclerosis activity in human HUVEC cells assessed as reduction in Bax level at 100 nM incubated for 24 hrs by Western blot analysis; assay type: functional, cell-based
HUVEC [20] = assay: Anti-atherosclerosis activity in human HUVEC cells transfected with PCSK9 siRNA assessed as increase in Bcl-2 level at 100 nM incubated for 24 hrs by Western blot analysis; assay type: functional, cell-based
HUVEC [21] = assay: Anti-atherosclerosis activity in human HUVEC cells transfected with PCSK9 siRNA assessed as inhibition of ox-LDL-induced caspase 9 expression at 100 nM preincubated with compound for 24 hrs followed by ox-LDL induction and measured after 24 hrs by Western blot analysis; assay type: functional, cell-based; details: time 48.0 hrs
HUVEC [22] = assay: Anti-atherosclerosis activity in human HUVEC cells transfected with PCSK9 siRNA assessed as inhibition of ox-LDL-induced caspase 3 expression at 100 nM preincubated with compound for 24 hrs followed by ox-LDL induction and measured after 24 hrs by Western blot analysis; assay type: functional, cell-based; details: time 48.0 hrs
HUVEC [23] = assay: Anti-atherosclerosis activity in human HUVEC cells transfected with PCSK9 siRNA assessed as inhibition of LPS-induced ICAM-1 mRNA expression at 100 nM preincubated with compound for 24 hrs followed by LPS induction and measured after 24 hrs by qPCR analysis; assay type: functional, cell-based; details: time 48.0 hrs
HUVEC [24] = assay: Anti-atherosclerosis activity in human HUVEC cells transfected with PCSK9 siRNA assessed as inhibition of LPS-induced VCAM-1 mRNA expression at 100 nM preincubated with compound for 24 hrs followed by LPS induction and measured after 24 hrs by qPCR analysis; assay type: functional, cell-based; details: time 48.0 hrs
THP-1 [25] = assay: Anti-atherosclerosis activity in human THP-1 cells transfected with PCSK9 siRNA assessed as reduction in ox-LDL-induced amount of red lipid droplets at 100 nM preincubated with compound for 24 hrs followed by ox-LDL induction and measured after 24 hrs by oil red staining based analysis; assay type: functional, cell-based; details: time 48.0 hrs
THP-1 [26] = assay: Anti-atherosclerosis activity in human THP-1 cells transfected with PCSK9 siRNA assessed as reduction in CD36 level at 100 nM preincubated with compound for 24 hrs followed by ox-LDL induction and measured after 24 hrs by Western blot analysis; assay type: functional, cell-based; details: time 48.0 hrs
THP-1 [27] = assay: Anti-atherosclerosis activity in human THP-1 cells transfected with PCSK9 siRNA assessed as reduction in NLRP3 level at 100 nM preincubated with compound for 24 hrs followed by ox-LDL induction and measured after 24 hrs by Western blot analysis; assay type: functional, cell-based; details: time 48.0 hrs
THP-1 [28] = assay: Anti-atherosclerosis activity in human THP-1 cells transfected with PCSK9 siRNA assessed as reduction in NF-kappaB level at 100 nM preincubated with compound for 24 hrs followed by ox-LDL induction and measured after 24 hrs by Western blot analysis; assay type: functional, cell-based; details: time 48.0 hrs
MOVAS [29] = assay: Downregulation of PCSK9 expression in mouse MOVAS cells transfected with PCSK9 siRNA incubated for 24 hrs Western blot analysis; assay type: functional, cell-based
MOVAS [30] = assay: Antiproliferative activity mouse MOVAS cells assessed as inhibition of cell growth incubated for 24 hrs by MTT assay; assay type: functional, cell-based
Huh-7 [31] = assay: Antiproliferative activity human Huh-7 cells assessed as inhibition of cell growth incubated for 24 hrs by MTT assay; assay type: functional, cell-based
HepG2 = assay: Antiproliferative activity human HepG2 cells assessed as inhibition of cell growth incubated for 24 hrs by MTT assay; assay type: functional, cell-based
THP-1 [32] = assay: Antiproliferative activity human THP-1 cells assessed as inhibition of cell growth incubated for 24 hrs by MTT assay; assay type: functional, cell-based
HUVEC [33] = assay: Antiproliferative activity human HUVEC cells assessed as inhibition of cell growth incubated for 24 hrs by MTT assay; assay type: toxicity, cell-based
[34] = Toxicity in mouse assessed as change in body weight at 5 to 15 mg/kg, po; assay type: organism-based; details: in vivo, dose 5-15 mg/kg
[35] = Toxicity in mouse assessed as heart damage at 5 to 15 mg/kg, po; assay type: organism-based; details: in vivo, dose 5-15 mg/kg
[36] = Toxicity in mouse assessed as kidney damage at 5 to 15 mg/kg, po; assay type: organism-based; details: in vivo, dose 5-15 mg/kg
Mus musculus [37] = assay: Anti-atherosclerosis activity in mouse assessed as reduction in TC level in plasma at 15 mg/kg, po measured for 3 weeks; assay type: functional, organism-based
Mus musculus [38] = assay: Anti-atherosclerosis activity in mouse assessed as […] in LDL level in liver at 15 mg/kg, po measured for 3 weeks; assay type: functional, organism-based
Mus musculus [39] = assay: Anti-atherosclerosis activity in mouse assessed as reduction in LDLR level in liver at 15 mg/kg, po measured for 3 weeks by Western blot analysis; assay type: functional, organism-based
Mus musculus [40] = assay: Anti-atherosclerosis activity in mouse assessed as reduction in PCSK9 level in liver at 15 mg/kg, po measured for 3 weeks by Western blot analysis; assay type: functional, organism-based
Mus musculus [41] = assay: Anti-atherosclerosis activity in mouse assessed as reduction in NF-kappab level in liver at 15 mg/kg, po measured for 3 weeks by Western blot analysis; assay type: functional, organism-based
Mus musculus [42] = assay: Anti-atherosclerosis activity in mouse assessed as reduction in NLRP3 level in liver at 15 mg/kg, po measured for 3 weeks by Western blot analysis; assay type: functional, organism-based
Mus musculus [43] = assay: Anti-atherosclerosis activity in mouse assessed as reduction in plaque area in aorta at 15 mg/kg, po measured for 3 weeks; assay type: functional, organism-based

Tmax [1]: 60 min | Tmax [2]: 60 min | Cmax [3]: 55 ng/mL | Cmax [4]: 423 ng/mL | AUC(0-t) [5]: 9810 ng·h/mL | AUC(0-t) [6]: 101 ng·h/mL | AUC(0-t) [7]: 951 ng·h/mL | AUC(0-inf) ([8]; C57, mouse): 10600 ng·h/mL | AUC(0-inf) ([9]; C57, mouse): 119 ng·h/mL | AUC(0-inf) [10]: 987 ng·h/mL | bioavailability ([11]; C57, mouse): 1.02% | bioavailability [12]: 9.69%
SMILES: COc1cc2c(cc1OCCCCN1C(=O)/C(=C\c3cc(Br)c(O)c(OC)c3)c3cc(Br)ccc31)C(C)(CC(=O)Nc1nccs1)NCC2 (stereo not given)

SMILES: COc1cc2c(cc1O)C(C)(CC(=O)Nc1nccs1)NCC2 (stereo not given)
Activity (Huh-7 [13]): inactive | Activity (Huh-7 [14]): inactive

SMILES: O=C1Nc2ccc(I)cc2/C1=C/c1cc(Br)c(O)c(Br)c1
Activity (Huh-7 [13]): inactive | Activity (Huh-7 [14]): inactive

Tmax [1]: 15 min | Tmax [2]: 30 min | Cmax [3]: 57.8 ng/mL | Cmax [4]: 1860 ng/mL | AUC(0-t) [5]: 9500 ng·h/mL | AUC(0-t) [6]: 59.8 ng·h/mL | AUC(0-t) [7]: 6070 ng·h/mL | AUC ([8]; mouse, iv, 5 mg/kg): 9932 ng·h/mL | AUC ([9]; mouse, po, 5 mg/kg): 177 ng·h/mL | AUC(0-inf) [10]: 6350 ng·h/mL | F ([11]; mouse, po, 5 mg/kg): 0.63% | bioavailability [12]: 63.9%
SMILES: COc1cc2c(cc1OCCOCCOCCOCCN1C(=O)/C(=C\c3cc(Br)c(O)c(Br)c3)c3cc(I)ccc31)C(C)(CC(=O)Nc1nccs1)NCC2 (stereo not given)
Activity (Huh-7 [15]): Active | Activity (Huh-7 [16]): inactive | Activity (Huh-7 [17]): Active | Activity (Huh-7 [18]): Active | Activity (Huh-7 [13]): Active | Activity (Huh-7 [14]): Active | Activity (HUVEC [19]): Active | Activity (HUVEC [20]): Active | Activity (HUVEC [21]): Active | Activity (HUVEC [22]): Active | Activity (HUVEC [23]): Active | Activity (HUVEC [24]): Active | Activity (THP-1 [25]): Active | Activity (THP-1 [26]): Active | Activity (THP-1 [27]): Active | Activity (THP-1 [28]): Active | Activity (MOVAS [29]): Active | Activity (MOVAS [30]): Active | Activity (Huh-7 [31]): Active | Activity (HepG2): Active | Activity (THP-1 [32]): Active | Activity (HUVEC [33]): Non-toxic | Activity [34]: Non-toxic | Activity [35]: Non-toxic | Activity [36]: Non-toxic | Activity (Mus musculus [37]): Active | Activity (Mus musculus [38]): Active | Activity (Mus musculus [39]): Active | Activity (Mus musculus [40]): Active | Activity (Mus musculus [41]): Active | Activity (Mus musculus [42]): Active | Activity (Mus musculus [43]): Active
